From ChEMBL document CHEMBL2163299, “Cytotoxic effects of combination of oxidosqualene cyclase inhibitors with atorvastatin in human cancer cells” (J Med Chem, 2012)
Activity calls are given as the source filed them. No cut-off for these calls is given here.

How the values were obtained:
[1] = Chemical stability of compound at pH 4.0 after 24 hrs; format: physicochemical; conditions: buffer, pH 4, 24 h
[2] = Chemical stability of compound at pH 7.4 after 24 hrs; format: physicochemical; conditions: buffer, pH 7.4, 24 h
Lanosterol synthase = molecular target: T1, Lanosterol synthase (Homo sapiens, UniProt P48449); assay: Inhibition of human liver microsome 2,3-OSC after 1 hr by Silica gel plate phosphor imaging
T1 sequence (P48449 whole entry): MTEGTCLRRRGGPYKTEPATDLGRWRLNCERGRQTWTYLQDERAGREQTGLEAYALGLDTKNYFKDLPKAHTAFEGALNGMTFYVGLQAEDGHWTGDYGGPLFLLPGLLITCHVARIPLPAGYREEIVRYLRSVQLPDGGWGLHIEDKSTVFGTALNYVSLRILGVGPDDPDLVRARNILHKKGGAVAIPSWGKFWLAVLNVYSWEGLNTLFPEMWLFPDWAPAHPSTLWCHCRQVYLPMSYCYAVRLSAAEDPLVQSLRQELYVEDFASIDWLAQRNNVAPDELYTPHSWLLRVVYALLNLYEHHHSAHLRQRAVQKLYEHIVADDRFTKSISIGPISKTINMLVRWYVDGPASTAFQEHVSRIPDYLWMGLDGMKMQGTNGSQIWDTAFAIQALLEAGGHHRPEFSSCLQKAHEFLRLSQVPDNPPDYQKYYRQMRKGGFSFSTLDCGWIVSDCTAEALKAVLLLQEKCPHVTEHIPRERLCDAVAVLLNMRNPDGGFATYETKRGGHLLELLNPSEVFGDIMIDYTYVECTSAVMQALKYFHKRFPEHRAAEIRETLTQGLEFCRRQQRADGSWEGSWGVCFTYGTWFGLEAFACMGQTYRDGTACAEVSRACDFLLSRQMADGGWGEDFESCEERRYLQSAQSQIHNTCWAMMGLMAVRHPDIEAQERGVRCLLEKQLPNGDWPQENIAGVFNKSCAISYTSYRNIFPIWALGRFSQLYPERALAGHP

A549 = assay: Cytotoxicity against human A549 cells after 72 hrs by MTT assay; format: functional, cell-based; conditions: A549, 72 h
KB = assay: Cytotoxicity against human KB cells after 72 hrs by MTT assay; format: functional, cell-based
LNCaP = assay: Cytotoxicity against human LNCAP cells after 72 hrs by MTT assay; format: functional, cell-based
[3] = Cytotoxicity against human LNZ308 cells after 72 hrs by MTT assay; format: functional, cell-based; conditions: LNZ308, 72 h
[4] = Cytotoxicity against human Me300 cells after 72 hrs by MTT assay; format: functional, cell-based; conditions: Me300, 72 h
OVCAR = assay: Cytotoxicity against human OVCAR cells after 72 hrs by MTT assay; format: functional, cell-based
LN-18 [5] = assay: Inhibition of DNA synthesis in human LN18 cells assessed as inhibition of tritiated thymidine incorporation at 1 to 3 uM after 24 hrs by beta counting; format: functional, cell-based
LN-229 [6] = assay: Inhibition of DNA synthesis in human LN229 cells assessed as inhibition of tritiated thymidine incorporation at 1 to 3 uM after 24 hrs by beta counting; format: functional, cell-based
[7] = (§1) Cytotoxicity against human LN18 cells assessed as reduction in cell survival after 72 hrs by MTT assay; format: functional, cell-based; conditions: LN-18, 72 h
[8] = (§2) Cytotoxicity against human LN229 cells assessed as reduction in cell survival after 72 hrs by MTT assay; format: functional, cell-based; conditions: LN-229, 72 h
[9] = pampa, pH 6.5
Description: Permeability of compound at pH 6.5 assessed as compound binding to lipid membrane by PAMPA

Caco-2 = assay: cells; conditions: Homo sapiens, Caco-2, 72 h
Description: Cytotoxicity against human Caco2 cells after 72 hrs by MTT assay

HeLa = assay: cells; conditions: Homo sapiens, 72 h
Description: Cytotoxicity against human HeLa cells after 72 hrs by MTT assay

MCF7 = assay: cells; conditions: Homo sapiens, MCF7, 72 h
Description: Cytotoxicity against human MCF7 cells after 72 hrs by MTT assay

cells = conditions: Homo sapiens, HCEC, 72 h
Description: Cytotoxicity against human HCEC cells assessed as reduction in cell survival after 72 hrs by MTT assay

physchem = conditions: 1-octanol/TAPSO buffer, pH 7.4
Description: 1-Octanol-TAPSO buffer distribution coefficient, log D of the compound at pH 7.4 by shake-flask method

in vitro = conditions: pampa, pH 6.5
Description: Apparent permeability of compound at pH 6.5 by PAMPA

LN-18 [10] = assay: as §1; format: functional, cell-based
LN-229 [11] = assay: as §2; format: functional, cell-based
LN-18 [12] = assay: Cytotoxicity against human LN18 cells after 72 hrs by MTT assay in presence of atorvastatin; format: functional, cell-based
LN-18 [13] = assay: Cytotoxicity against human LN18 cells at 2 to 10 uM after 72 hrs by MTT assay in presence of atorvastatin; format: functional, cell-based
LN-229 [14] = assay: Cytotoxicity against human LN229 cells at 4 uM after 72 hrs by MTT assay in presence of atorvastatin; format: functional, cell-based
LN-229 [15] = assay: Cytotoxicity against human LN229 cells at 4 to 10 uM after 72 hrs by MTT assay; format: functional, cell-based
[16] = Cytotoxicity against human HCEC cells at 2 to 10 uM after 72 hrs in by MTT assay in presence of atorvastatin; format: cell-based
[17] = Cytotoxicity against human LN229 cells assessed as decrease in cell survival at 2 uM after 72 hrs by MTT assay in presence of 2.5 uM atorvastatin; format: functional, LN-229
LN-229 [18] = assay: Induction of [14C]acetate incorporation in human LN229 cells at 2 uM after 24 hrs by Beta-counting in presence of 2.5 to 10 uM atorvastatin; format: functional, cell-based
LN-18 [19] = assay: Induction of [14C]acetate incorporation in human LN18 cells at 2 uM after 24 hrs by Beta-counting in presence of 2.5 to 10 uM atorvastatin; format: functional, cell-based
LN-229 [20] = assay: Induction of [14C]acetate incorporation in human LN229 cells at 2 uM after 24 hrs by Beta-counting; format: functional, cell-based
LN-18 [21] = assay: Induction of [14C]acetate incorporation in human LN18 cells at 2 uM after 24 hrs by Beta-counting; format: functional, cell-based
LN-229 [22] = assay: Cytotoxicity against human LN229 cells at 4 to 10 uM after 72 hrs by MTT assay in presence of atorvastatin; format: functional, cell-based
LN-18 [23] = assay: Inhibition of lipid synthesis in human LN18 cells assessed as [14C]acetate incorporation after 24 hrs by Beta-counting; format: functional, cell-based
LN-229 [24] = assay: Inhibition of lipid synthesis in human LN229 cells assessed as [14C]acetate incorporation after 24 hrs by Beta-counting; format: functional, cell-based

SMILES	Stability [1]	Stability [2]	IC50 (Lanosterol synthase) [µM]	IC50 (A549) [µM]	IC50 (KB) [µM]	IC50 (LNCaP) [µM]	IC50 [3] [µM]	IC50 [4] [µM]	IC50 (OVCAR) [µM]	inhibition (LN-18 [5])	inhibition (LN-229 [6])	IC50 [7] [µM]	IC50 [8] [µM]	permeability [9] [%]	IC50 (Caco-2) [µM]	IC50 (HeLa) [µM]	IC50 (MCF7) [µM]	IC50 (cells) [µM]	logD (physchem)	Papp (in vitro) [×10⁻⁶ cm/s]	other results
CCCN(C)CCCC#C[C@H]1CC[C@H](N(C)C(=O)Oc2ccc(Cl)cc2)CC1.O=C(O)/C=C/C(=O)O	Stable	Stable	0.0078	8.41	4.53	18.7	12.6	18.9	> 30	Active	Active	28	> 30	0	6.75	6.82	> 30	26.3	3.28	0.81	–
CN(CC[C@H]1CC[C@H](C(=O)N2CCC(O)CC2)CC1)C(=O)Oc1ccc(Cl)cc1	Stable	Stable	0.0287	> 30	7.58	5.55	> 30	25	> 30	Active	Active	> 30	> 30	2	> 30	21.8	> 30	> 30	2.93	5.05	–
C=CCN(C)Cc1ccc(-c2ccc(C(=O)c3ccc(Br)cc3)cc2)cc1.Cl	Stable	Stable	0.008	6.19	2.03	5.07	14.4	13.9	> 30	Active	Active	2.3	17.9	58	3.81	2.69	25.7	> 30	3.13	0.64	Activity (LN-18 [10]): Dose-dependent effect; Activity (LN-229 [11]): Dose-dependent effect; Activity (LN-18 [12]): Active
CN(CCO)CCCCC[C@H]1CC[C@H](N(C)S(=O)(=O)c2ccc(C(F)(F)F)cc2)CC1.O=C(O)/C=C/C(=O)O	Stable	Stable	0.0112	6.09	4.28	> 30	> 30	20.9	> 30	Active	Active	> 30	> 30	50	2.67	4.53	12.3	19	3.07	1.79	–
C=CCN(C)CCCCC[C@H]1CC[C@H](N(C)C(=O)Oc2ccc(C(F)(F)F)cc2)CC1.O=C(O)CC(O)(CC(=O)O)C(=O)O	Stable	Stable	0.005	6.93	1.02	4.62	2.1	16	12.9	Active	Active	2.8	8.3	25	6.3	1.06	20.7	5.1	3.48	13	–
C=CCN(C)CCCCCCOc1ccc2c(-c3ccc(Br)cc3)nsc2c1.O=C(O)/C=C/C(=O)O	Stable	Stable	–	6.06	8.52	19.5	4.4	13.4	> 30	Active	Active	7.6	5.2	40	1.97	8.85	8.3	4.8	3.43	0.57	Activity (LN-18 [10]): Dose-dependent effect; Activity (LN-18 [13]): Active; Activity (LN-229 [14]): Active
CCN(CCO)CCCC#C[C@H]1CC[C@H](N(C)C(=O)Oc2ccc(Cl)cc2)CC1.Cl	Stable	Stable	0.01	13.6	5.86	23.6	15.3	26.2	> 30	Active	Active	13.4	21.1	10	4.81	8.64	> 30	29.1	2.51	2.87	–
CCN(CCO)CCCCOc1ccc2c(-c3ccc(Br)cc3)nsc2c1.Cl	Stable	Stable	0.0178	5.14	4.66	> 30	4.7	6.2	16.7	Active	Active	2	2.9	37	1.04	6.37	5.58	2.2	3.39	0.22	Activity (LN-18 [10]): Dose-dependent effect; Activity (LN-229 [11]): Dose-dependent effect; Activity (LN-229 [15]): Active; Activity (LN-18 [13]): Active; Activity [16]: Non-toxic; Activity [17]: 80%; Activity (LN-229 [18]): Active; Activity (LN-18 [19]): Active; Activity (LN-229 [20]): Active; Activity (LN-18 [21]): Active; Activity (LN-229 [22]): Active
CCN(CCO)C[C@H]1CC[C@H](CCN(C)C(=O)Oc2ccc(C(F)(F)F)cc2)CC1.O=C(O)CC(O)(CC(=O)O)C(=O)O	Stable	Stable	0.0127	22.7	10	> 30	23.2	> 30	> 30	Active	Active	18.9	> 30	5	10	10	> 30	> 30	2.53	5.11	–
CC(C)c1c(C(=O)Nc2ccccc2)c(-c2ccccc2)c(-c2ccc(F)cc2)n1CC[C@@H](O)C[C@@H](O)CC(=O)O [ATORVASTATIN CALCIUM]	–	–	–	> 30	1.97	> 30	7.44	1.2	> 30	Active	Active	6.9	8.1	–	–	4.22	> 30	–	–	–	inhibition (LN-18 [23]): Dose-dependent effect; inhibition (LN-229 [24]): Dose-dependent effect
